Data on 15 compounds can be found in US10703747B2, “Benzothiophene-based selective mixed estrogen receptor downregulators” (The Board of Trustees of the University of Illnois, priority 2016, dated 2020).

The structures appear in SMILES notation. Where two headings read alike, the source gives them in different places.

Common to all, as to format: cell-based
In test [1] the test system is MCF7:5C (Tamoxifen Resistant) cells. As to the kind of experiment: Cell viability of MCF7:5C (tamoxifen resistant), DNA content growth inhibition. To be noted: 144 h, day 6, read-out: MCF-5C growth inhibition IC50. The protocol: Assays Cell Viability of MCF7:5C (Tamoxifen Resistant)
The DNA content of the cells was determined as previously described using a Fluorescent DNA Quantitation kit (cat. No. 170-2480; Bio-Rad Laboratories, Hercules, Calif.). Briefly, five thousand cells were plated per well in 96-well plates, and treatment with indicated concentrations of compounds was started at the same time in each well. On day 6, the cells in the plates were lysed and frozen at −80° C. To measure the total DNA in each well, the plates were allowed to warm to room temperature, incubated with Hoechst dye, and mixed well. The fluorescence was measured using a Synergy H4 Hybrid Multi-Mode Microplate Reader. For each analysis, six replicate wells were used and at least three independent experiments were performed.
FIG. 1 is a graph of the efficacy of Compound 1 against tamoxifen-resistant MCF-7:5 cells normalized to 1 uM fulvestrant. The y-axis is cell survival as a percent of the control and the x-axis is the concentration of the compound measured in nanomolar units.

Test [2] addresses T1, estrogen receptor (Homo sapiens, UniProt P03372).
T1 sequence (P03372 1-595): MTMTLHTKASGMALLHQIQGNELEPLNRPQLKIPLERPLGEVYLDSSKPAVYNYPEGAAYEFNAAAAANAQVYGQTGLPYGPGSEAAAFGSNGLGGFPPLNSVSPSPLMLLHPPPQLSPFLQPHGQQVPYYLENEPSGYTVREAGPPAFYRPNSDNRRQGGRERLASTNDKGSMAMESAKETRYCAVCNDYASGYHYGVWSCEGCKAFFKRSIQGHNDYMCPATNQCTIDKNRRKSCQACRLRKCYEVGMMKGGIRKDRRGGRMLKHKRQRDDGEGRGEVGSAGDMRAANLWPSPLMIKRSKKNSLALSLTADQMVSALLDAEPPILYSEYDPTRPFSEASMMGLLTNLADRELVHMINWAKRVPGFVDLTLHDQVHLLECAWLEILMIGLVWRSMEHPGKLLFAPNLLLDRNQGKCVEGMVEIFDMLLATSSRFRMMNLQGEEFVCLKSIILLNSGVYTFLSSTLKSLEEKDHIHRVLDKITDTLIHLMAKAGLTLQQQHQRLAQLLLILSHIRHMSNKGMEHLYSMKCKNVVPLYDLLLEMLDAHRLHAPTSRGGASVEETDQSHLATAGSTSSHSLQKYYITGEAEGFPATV
Put plainly: Western blot, estrogen receptor downregulation in MCF-7:5C cells. To be noted: 24 hours, 1 nM to 1 uM. More on the design: Whole-cell extracts of cultured cells were prepared in lysis buffer; endogenous in cells. The protocol:
(§1) Whole-cell extracts of cultured cells were prepared in lysis buffer (200 mmol/L Tris, 1% Triton X-100, 5 mmol/L EDTA) with protease and phosphatase inhibitor cocktails (1:50, both from Sigma-Aldrich) after scraping from the culture plates. Protein concentration was measured using the Bradford method (Bio-Rad). Proteins were separated under denaturing conditions and blotted onto nitrocellulose membrane (Bio-Rad) using a wet transfer system (Bio-Rad). Images of blots were acquired on a Bio-Rad ChemiDoc System following incubation with SuperSignal West Dura luminol solution (Thermo Fisher Scientific).
(§2) Fulvestrant at 1 uM concentration was assayed as a positive control.
On the technique in general: A western blot detects proteins with antibodies after separation by electrophoresis.

Test [3] has as its target T1, estrogen receptor. Put plainly: Western blot, estrogen receptor downregulation in T47D:neo cells. Set-up: Whole-cell extracts of cultured cells were prepared in lysis buffer; endogenous in cells; host or cells: T47D:neo. To be noted: 24 hours, 1 nM to 1 uM. The protocol:
as §1, §2

The mark [4] stands for this setting: Table 2, data normalized to 1 uM fulvestrant.
The mark [5] stands for this setting: Table 1, data normalized to 1 uM fulvestrant.

Turning to `Cc1cc(O)ccc1C(=O)c1sc2cc(O)ccc2c1-c1ccc(/C=C/C(=O)O)cc1` [Compound 14, (E)-3-(4-(6-hydroxy-2-(4-hydroxy-2-methylbenzoyl)benzo[b]thiophen-3-yl)phenyl)acrylic acid], in test [1] (setting [4]), the IC50 (in general, the midpoint of a concentration-inhibition curve) is above 0.2 µM.

Regarding `O=C(O)/C=C/Oc1ccc(-c2c(C(=O)c3ccc(O)cc3)sc3cc(O)ccc23)cc1` [Compound 2, (E)-3-(4-(6-hydroxy-2-(4-hydroxybenzoyl)benzo[b]thiophen-3-yl)phenoxy)acrylic acid], in test [1] (setting [5]), the IC50 was below 0.01 µM.

Consider `Cc1cc(F)cc(C)c1C(=O)c1sc2cc(O)ccc2c1-c1ccc(/C=C/C(=O)O)cc1` [Compound 8, (E)-3-(4-(2-(4-fluoro-2,6-dimethylbenzoyl)-6-hydroxybenzo[b]thiophen-3-yl)phenyl)acrylic acid], for which, in test [1] (setting [5]), the IC50 is above 0.2 µM.

Consider `Cc1ccc(F)cc1C(=O)c1sc2cc(O)ccc2c1-c1ccc(/C=C/C(=O)O)cc1` [Compound 7, (E)-3-(4-(2-(5-fluoro-2-methylbenzoyl)-6-hydroxybenzo[b]thiophen-3-yl)phenyl)acrylic acid], for which, in test [1] (setting [5]), the IC50 is above 0.2 µM.

As for `O=C(O)/C=C/c1ccc(-c2c(C(=O)c3ccc(O)cc3)sc3cc(O)ccc23)cc1` [Compound 1, (E)-3-(4-(6-hydroxy-2-(4-hydroxybenzoyl)benzo[b]thiophen-3-yl)phenyl)acrylic acid], in test [1] (setting [5]), the IC50 is below 0.1 µM. The “estrogen receptor downregulation (western blot)” value at estrogen receptor [2] and on estrogen receptor [3] was “estrogen receptor downregulation” each time.

With `Cc1cc(F)ccc1C(=O)c1sc2cc(O)ccc2c1-c1ccc(/C=C/C(=O)O)cc1` [Compound 9, (E)-3-(4-(2-(4-fluoro-2-methylbenzoyl)-6-hydroxybenzo[b]thiophen-3-yl)phenyl)acrylic acid], the IC50 in test [1] (setting [5]) was above 0.2 µM.

For the compound `Cc1cc(C)cc(C(=O)c2sc3cc(O)ccc3c2-c2ccc(/C=C/C(=O)O)cc2)c1` [Compound 11, (E)-3-(4-(2-(3,5-dimethylbenzoyl)-6-hydroxybenzo[b]thiophen-3-yl)phenyl)acrylic acid], the IC50 in test [1] (setting [5]) is above 0.2 µM.

As to `Cc1ccccc1C(=O)c1sc2cc(O)ccc2c1-c1ccc(/C=C/C(=O)O)cc1` [Compound 6, (E)-3-(4-(6-hydroxy-2-(2-methylbenzoyl)benzo[b]thiophen-3-yl)phenyl)acrylic acid], the IC50 in test [1] (setting [5]) is above 0.2 µM.

Consider `Cc1cccc(C)c1C(=O)c1sc2cc(O)ccc2c1-c1ccc(/C=C/C(=O)O)cc1` [Compound 10, (E)-3-(4-(2-(2,6-dimethylbenzoyl)-6-hydroxybenzo[b]thiophen-3-yl)phenyl)acrylic acid], for which the IC50 in test [1] (setting [5]) was above 0.2 µM.

As to `O=C(O)/C=C/c1ccc(-c2c(C(=O)C3CCCCC3)sc3cc(O)ccc23)cc1` [Compound 12, (E)-3-(4-(2-(cyclohexanecarbonyl)-6-hydroxybenzo[b]thiophen-3-yl)phenyl)acrylic acid], in test [1] (setting [4]), the IC50 was below 0.2 µM.

In the case of `O=C(O)/C=C/c1ccc(-c2c(C(=O)c3ccccc3Cl)sc3cc(O)ccc23)cc1` [Compound 4, (E)-3-(4-(2-(2-chlorobenzoyl)-6-hydroxybenzo[b]thiophen-3-yl)phenyl)acrylic acid], in test [1] (setting [5]), the IC50 was above 0.2 µM.

With `Cc1cc(O)cc(C)c1C(=O)c1sc2cc(O)ccc2c1-c1ccc(/C=C/C(=O)O)cc1` [Compound 15, (E)-3-(4-(6-hydroxy-2-(4-hydroxy-2,6-dimethylbenzoyl)benzo[b]thiophen-3-yl)phenyl)acrylic acid], the IC50 in test [1] (setting [4]) was above 0.2 µM.

As for `Cc1cc(OC(F)(F)F)ccc1C(=O)c1sc2cc(O)ccc2c1-c1ccc(/C=C/C(=O)O)cc1` [Compound 13, (E)-3-(4-(6-hydroxy-2-(2-methyl-4-(trifluoromethoxy)benzoyl)benzo[b]thiophen-3-yl)phenyl)acrylic acid], the IC50 in test [1] (setting [4]) is above 0.2 µM.

Turning to `O=C(O)/C=C/c1ccc(-c2c(C(=O)c3ccccc3C(F)(F)F)sc3cc(O)ccc23)cc1` [Compound 5, (E)-3-(4-(6-hydroxy-2-(2-(trifluoromethyl)benzoyl)benzo[b]thiophen-3-yl)phenyl)acrylic acid], in test [1] (setting [5]), the concentration for half-maximal inhibition (IC50) is above 0.2 µM.

Take `O=C(O)/C=C/c1ccc(-c2c(C(=O)c3ccccc3F)sc3cc(O)ccc23)cc1` [Compound 3, (E)-3-(4-(2-(2-fluorobenzoyl)-6-hydroxybenzo[b]thiophen-3-yl)phenyl)acrylic acid]: in test [1] (setting [5]), the IC50 was above 0.2 µM.
